Experiment [1] deals with HIV-Bal in U87MG. Briefly: Cytokine pre-stimulation and HIV-Bal replication in U87MG, p24 ELISA. Type of experiment: cell-based. Conditions: pre-stimulation at 10 ng/ml, p24 day 7. The method, then:
(§1) U87MG (A) and HFA (B) were pre-stimulated with increasing doses of either GM-CSF or IFNγ for 24 h followed by HIV-BAL infection for 24 hours. HIV replication was determined by measuring HIV p24 levels by ELISA seven days post-infection. The dotted line represents basal level of HIV infection of astrocytes without cytokine pre-treatment. Data is representative of three experiments performed in quadruplicate. Error bars represent standard deviations of the mean. Asterisks denote significant values (p<0.05) in comparison to untreated cultures as evaluated by analysis of variance.
(§2) To determine if pre-stimulation of astrocytes primes astrocytes, for productive HIV infection, U87MG and HFA were pre-treated for 24 hours with TNFγ, GM-CSF, or IFNγ at various concentrations (0-1000 ng/ml) then infected with HIV-Bal at 10 ng of HIV p24/1×10^6 cells for 24 hours. The cells were then washed extensively or trypsinized to remove bound virus and propagated in the presence of the respective cytokine concentration. HIV infection was monitored by p24 ELISA seven days post-infection. […]
(§3) IFN-γ Treatment and HIV Infection. […] HIV infection was monitored at day 7 postinfection by measuring p24 levels by conventional enzyme-linked immunosorbent assay (ELISA) (National Cancer Institute, Frederick, Md.).

Experiment [2] has as its system HIV-Bal in HFA. Briefly: Cytokine pre-stimulation and HIV-Bal replication in human fetal astrocytes, p24 ELISA. Type of experiment: cell-based. Conditions: 24 h pre-stimulation, p24 day 7. Here is the method: as §1, §2, §3
Experiment [3] deals with IFNγ, GM-CSF and TNFγ receptors on U87MG. Briefly: Cytokine receptor expression on U87MG by flow cytometry. Type of experiment: cell-based, human. Conditions: 24-hour treatment. Here is the method:
U87MG (A) or HFA (B) were left untreated or treated with GM-CSF (50 ng/ml), IFNγ100 ng/ml) or TNFγ100 ng/ml). […] Percent expression of GM-CSF receptor (R), IFNγR, and TNFγR was measured 24 hours post-stimulation by flow cytometry. Data is representative of three experiments. Error bars represent standard deviations of the mean.
Prior to evaluating if GM-CSF, IFNγ, and TNFγ can augment HIV replication of astrocytes, a question was whether U87MG and HFA express the respective cytokine receptors. U87MG and HFA were treated with or without the respective cytokine for 24 hours and cytokine receptor expression was evaluated by flow cytometry. Approximately 35% of U87MG expressed the IFNγ receptor and a low level of GM-CSF and TNFγ receptors (<8%; FIG. 3A). […] Untreated HFA expressed only low levels of IFNγ receptor (6%) and this expression was abrogated with IFNγ treatment. GM-CSF and TNFγ receptors were not expressed on HFA.

Experiment [4] relates to CD4, hMR, CCR1, D6 on U87MG. Description: HIV receptor and chemokine co-receptor expression on U87MG by flow cytometry. Type of experiment: cell-based, human. The method, then:
(§4) U87MG (A) and HFA (B) were left untreated or treated GM-CSF (50 ng/ml) or IFNγ (100 ng/ml) for 24 h. Expression of receptors on the x-axis was measured by flow cytometry. Isotype refers to mouse IgG. Data is representative of three experiments. Error bars represent standard deviation of the mean. (C). IFNγ up-regulates D6 on U87MG cells. U87MG were left untreated or treated with IFNγ. After 3 days, the cells were immunostained with anti-D6 or isotype antibodies. The first histogram (peak) represents isotype control; the dark shaded histogram represents untreated cultures, and the third histogram (peak) represents IFNγ-treated cultures. Data is typical of quadruplet experiments.
(§5) Because IFNγ was a potent cytokine in inducing HIV infection of astrocytes, it was determined whether IFNγ treatment modulated key HIV receptors CD4, human mannose receptor D6 and co-receptors (CCR1, CCR2, CCR3, CXCR4, and CCR5) for HIV infection. U87MG is human mannose receptor (hMR) […] (FIG. 5). However, hMR was not detected on HFA, which may be regulated by the differentiation stage of the HFA (FIG. 5 (B)). CD4 and hMR expression in both U87MG and HFA was not augmented by IFNγ or GM-CSF (FIG. 5(A)-(B)). […] HFA were positive for CXCR4 (12%), but its expression was not augmented by GM-CSF or IFNγ treatment (FIG. 5B). IFNγ was reported to enhance CXCR4 and CCR5 expression on simian adult astrocytes, which is in contrast to data on human fetal astrocytes highlighting a discrepancy between simian adult and human fetal astrocytes. […] Infection of U87MG and HFA with a T-tropic isolate (IIIB), while it was productive, was not enhanced by cytokine pre-treatment. This may be a consequence of the laboratory adapted HIV IIIB, therefore primary T-tropic or dual tropic strains may still be responsive to IFNγ pre-treatment of astrocytes. Recently, the CC chemokine receptor D6 was identified as a functional co-receptor for primary HIV infection of astrocytes.

For experiment [5], the system named is CD4, hMR, CXCR4 on HFA. Description: HIV receptor and chemokine co-receptor expression on HFA by flow cytometry. Type of experiment: cell-based, human. Here is the method:
as §4, §5

Experiment [6] deals with HIV IIIB. Briefly: HIV IIIB replication in stimulated PBMCs, p24 ELISA. Type of experiment: cell-based. Particulars: ALLN at either 5 or 25, p24 day 7, vs non-ALLN treated. Set-up: dose or concentration left out as unconfirmed.
Experiment [7] deals with HIV 302151 (93US151). Briefly: Primary HIV isolate 302151 replication in stimulated PBMCs, p24 ELISA. Type of experiment: cell-based. Particulars: ALLN at either 5 or 25, p24 day 7, vs non-ALLN treated.

In the case of “GM-CSF: cytokine secreted by glial cells; used to pre-stimulate astrocytes”, the results for the “Induction of HIV replication” value in experiment [1] and in experiment [2] were 5 fold and “no effect”, respectively. The “Effect on respective cytokine receptor expression” value in experiment [3] is on record as “neither GM-CSF nor TNFγ treatments had an effect”. Moreover, the “CD4 and hMR expression” value in experiment [4] and in experiment [5] was “not augmented” throughout. Moreover, the “Up-regulation of CCR1 expression” value in experiment [4] (24 h treatment) is “no effect”. Moreover, the CXCR4 expression entry in experiment [5] (untreated 12%) is given as “not augmented”.

Turning to “N-acetyl-Leu-Leu-norleucinal [ALLN peptide]”, the “Induction of HIV IIIB replication” value in experiment [6] is “three”. In experiment [7], the “Induction of HIV 30215 replication” value is reported as “five-fold”.

Values taken from patent US20080193563A1, “HARNESSING WNT SIGNALING TO RESTRICT HIV REPLICATION” (priority 2006, published 2008).
